Four molecules from patent US20240131032A1, “AN ACTIVITY-GUIDED MAP OF ELECTROPHILE-CYSTEINE INTERACTIONS IN PRIMARY HUMAN IMMUNE CELLS” (The Scripps Research Institute, priority 2019, published 2024) can be followed below.

The test system of assay [1] is CRISPR/Cas9-edited primary human T cells. The assay can be described thus: T cell activation after CRISPR/Cas9 target disruption plus compound (FACS CD25/CD69). It is filed as cell-based. As for the experimental part: DNA templates consisting of a T7 RNA Polymerase promoter, the ˜20 nt target-specific sequence, and the chimeric sgRNA scaffold were generated for each desired target by overlapping PCR using Q5 High Fidelity Master Mix (New England Biolabs) under the following conditions: 98° C. for 2 min; 50° C. for 10 min; 72° C. for 10 min. Guide RNA templates were used to transcribe guide RNAs using the HiScribe T7 High Yield RNA Synthesis kit (New England Biolabs) according to the manufacturer's instructions. Following in vitro transcription, guides were purified using Monarch RNA Cleanup Kit (New England Biolabs) following manufacturer's instructions.
The Cas9 RNPs were assembled before transfection using the ArciTect™ Cas9-eGFP Nuclease (StemCell) with the T7 transcribed RNAs at a molar ratio of 1:3 in Buffer T. For each target of interest, the genome was tiled with 3 unique guide RNAs. Before the transfection, primary T cells were preactivated on αCD3/αCD28-precoated plates in complete RPMI medium supplemented with 100 U/mL IL2 for 48 h. The T cells were then washed with PBS and resuspended in Buffer T (10×10^6 cells/mL) and the Cas9 RNP transfections were performed using the Neon Transfection system (ThermoFisher). Following the Cas9 RNP transfection, T cells were cultured in RPMI supplemented with 50 U/mL IL2 for 7 days. […]

In assay [2] the test system is NuRD complex. Briefly: Expression-based proteomics (TMT-exp) of compound-treated T cells, NuRD complex. It is filed as cell-based, human. The conditions noted are these: BPK-25 10 μM, 24 h; for decrease in GATAD2B, MBD2, MBD3, and MTA2 (NuRD complex proteins): BPK-21 20 μM, EV-3 10 μM, DMF 50 μM. As for the experimental part:
FIG. 7B is a scatter plot representation of protein abundance changes caused by BPK-25 (10 μM, 24 h) in two independent replicate experiments, with decreases in NuRD complex components highlighted in red. FIG. 7C is a heatmap of top proteins with decreased abundance in BPK-25-treated T cells showing that the subset of these proteins in the NuRD complex (asterisks) were largely unaltered by other active compounds and blocked in their degradation by co-treatment with the proteasome inhibitor MG132. […] FIG. 7E is a bar graph […] showing time-dependent reductions in NuRD complex members in human T cells treated with BPK-25 (10 μM). Left, representative western blots. Right, quantification of changes in protein. […] FIG. 7G is a heat map showing the changes in cysteine reactivity for NuRD complex members in human T cells treated with BPK-25 and other active compounds.
Freshly isolated T cells (1.6×10^7 cells, 2×10^6 cells/mL in RPMI media) were treated with compound or DMSO for 24 h, pelleted (600 g, 5 min), and washed with PBS (1×10 mL). The cells were then transferred to an Eppendorf tube in additional PBS (1 mL), pelleted (600 g, 5 min), flash frozen, and kept at −80° C. until further analysis. On the first day of the whole proteome TMT protocol, the cells were thawed on ice and lysed in lysis buffer (150 μL, 1 tablet of Roche complete, mini, EDTA-free Protease Inhibitor Cocktail dissolved in 10 mL of PBS) using a probe sonicator (2×8 pulses). Protein concentration was adjusted to 2.0 mg/mL and the samples (100 μL) were transferred to new Eppendorf tubes (1.5 mL) containing urea (48 mg/tube, final urea concentration: 8 M). DTT (5 μL, 200 mM fresh stock in H2O, final DTT concentration: 10 mM) was then added to the tubes and the samples were incubated at 65° C. for 15 min. Following this incubation, iodoacetamide (5 μL, 400 mM fresh stock in H2O, final IA concentration: 20 mM) was added and the samples were incubated in the dark at 37° C. with shaking for 30 min. Ice-cold MeOH (600 μL), CHCl3 (200 μL), and H2O (500 μL) were then added, the mixture was vortexed and centrifuged (10,000 g, 10 min, 4° C.) to afford a protein disc at the interface of CHCl3 and aqueous layers. The top layer was aspirated without perturbing the disk, additional MeOH (600 μL) was added and the proteins were pelleted (10,000 g, 10 min, 4° C.) and used in the next step or stored at −80° C. overnight.
The resulting protein pellets were resuspended in EPPS buffer (160 μL, 200 mM, pH 8) using a probe sonicator (2×6 pulses). […]
The sample became clear after the overnight digestion. At this point, peptide concentration was determined using microBCA assay (Thermo Scientific) according to manufacturer's instructions. […]

Structures are written as SMILES.

As for `C=CC(=O)N(Cc1cccc(Cl)c1Cl)c1ccc(Oc2ccccc2)c(C(F)(F)F)c1` [BPK-21], the “T cell activation in sgERCC3 cells” value in assay [1] (CRISPR/Cas9 disruption of ERCC3) was “only a modest further reduction in activation”.

As for `C=CC(=O)N(Cc1cccc(Cl)n1)c1ccc(C(=O)Nc2ccccc2)nc1` [BPK-25], in assay [2], the “reduced abundance of additional NuRD complex members” value was 25-50%; the “decrease in GATAD2B, MBD2, MBD3, and MTA2 (NuRD complex proteins)” value is recorded as more than 50%.

For the molecule `COC(=O)/C=C/C(=O)OC` [DMF, reference compound], the “decrease in GATAD2B, MBD2, MBD3, and MTA2 (NuRD complex proteins)” value in assay [2] is “not leading to NuRD complex degradation”.

For the molecule `O=C(CCl)N1CCN(S(=O)(=O)c2ccc(-c3ccncc3)cc2)CC1` [EV-3], the “T cell activation in BIRC2/BIRC3-null cells” value in assay [1] (CRISPR/Cas-9 disruption of BIRC2 and BIRC3) is recorded as “further decreased T cell activation”.
